Biological target: T1, human PAH with the R408W mutation (Homo sapiens, UniProt P00439, R408W)
T1 construct: expressed in transfected cells
T1 sequence (P00439 1-452 R408W): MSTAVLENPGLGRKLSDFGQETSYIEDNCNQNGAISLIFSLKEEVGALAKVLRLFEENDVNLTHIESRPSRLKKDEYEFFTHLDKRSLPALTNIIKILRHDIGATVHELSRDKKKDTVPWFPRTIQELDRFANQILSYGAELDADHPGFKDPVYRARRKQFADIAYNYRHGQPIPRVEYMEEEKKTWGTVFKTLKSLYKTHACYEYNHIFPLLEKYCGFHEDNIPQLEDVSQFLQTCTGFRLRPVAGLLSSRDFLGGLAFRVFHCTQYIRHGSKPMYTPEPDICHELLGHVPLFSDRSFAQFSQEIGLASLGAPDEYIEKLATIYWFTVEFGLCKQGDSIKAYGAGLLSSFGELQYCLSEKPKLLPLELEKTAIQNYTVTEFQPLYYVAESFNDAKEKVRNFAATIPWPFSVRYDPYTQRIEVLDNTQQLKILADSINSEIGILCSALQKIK
Assay: Cell Based Phenylalanine Flux Assay
Conditions: A375 R408W cells, 24 hrs with compound, then 20 μM sepiapterin and 800 μM 13C9,15N-Phenylalanine for 4 hours; 13C-Tyrosine by LC-MS; average where tested multiple times; read-out: AC50

Compound | AC50
O=C(Cc1nc(C(F)(F)F)cs1)N1CCc2[nH]cnc2C1c1cn2ccccc2n1 (centres unmarked) | > 5 µM
O=C(CCc1ccccc1)N1CCc2[nH]cnc2C1c1cn2ccccc2n1 (centres unmarked) | > 5 µM
Cc1nc(C2(O)CC2)oc1C(=O)N1CCc2[nH]cnc2C1c1ccc2ccccc2n1 (centres unmarked) | > 5 µM
Cc1nc(C2CCN2)oc1C(=O)N1CCc2[nH]cnc2C1c1ccc2ccccc2n1 (centres unmarked) | > 5 µM
O=C(c1cncs1)N1CCc2[nH]cnc2C1c1cn2ccccc2n1 (centres unmarked) | > 5 µM
Cc1ncoc1C(=O)N1CCc2[nH]cnc2C1c1ncc2ccccc2n1 (centres unmarked) | 1 to 5 µM
O=C(c1nnc(-c2cn[nH]c2)o1)N1CCc2[nH]cnc2C1c1ncc2ccccc2n1 (centres unmarked) | 1 to 5 µM
CC(C)(O)c1nnc(C(=O)N2CCc3[nH]cnc3C2c2ncc3ccccc3n2)o1 (centres unmarked) | 1 to 5 µM
O=C(c1nnc(N2CC(F)C2)o1)N1CCc2[nH]cnc2C1c1ncc2ccccc2n1 (centres unmarked) | 1 to 5 µM
CN1CCN(c2nnc(C(=O)N3CCc4[nH]cnc4C3c3ncc4ccccc4n3)o2)CC1 (centres unmarked) | 1 to 5 µM
O=C(c1nnc(-c2ncccn2)o1)N1CCc2[nH]cnc2C1c1ncc2ccccc2n1 (centres unmarked) | 1 to 5 µM
O=C(c1nnc(N2CCOCC2)o1)N1CCc2[nH]cnc2C1c1ncc2ccccc2n1 (centres unmarked) | 1 to 5 µM
CC1CN(C(=O)c2nnc(N3CC(F)C3)o2)C(c2cc3ccccc3cn2)c2nc[nH]c21 (centres unmarked) | > 5 µM
Cc1ncoc1C(=O)N1CC(C)c2[nH]cnc2C1c1cc2ccccc2cn1 (centres unmarked) | > 5 µM
CC1CN(C(=O)c2nnc(-c3cnn(C)c3)o2)C(c2cc3ccccc3cn2)c2nc[nH]c21 (centres unmarked) [listing 1 of 3 here] | 1 to 5 µM
CC1CN(C(=O)c2ocnc2C(F)(F)F)C(c2cc3ccccc3cn2)c2nc[nH]c21 (centres unmarked) | 1 to 5 µM
CC1CN(C(=O)c2nnc(-c3cnn(C)c3)o2)C(c2cc3ccccc3cn2)c2nc[nH]c21 (centres unmarked) [listing 2 of 3 here] | 1 to 5 µM
COCCNc1nnc(C(=O)N2CC(C)c3[nH]cnc3C2c2cc3ccccc3cn2)o1 (centres unmarked) | 1 to 5 µM
CC1CN(C(=O)c2nnc(NC3CC3)o2)C(c2cc3ccccc3cn2)c2nc[nH]c21 (centres unmarked) | 1 to 5 µM
CC1CN(C(=O)c2nnc(-c3cnn(C)c3)o2)C(c2cc3ccccc3cn2)c2nc[nH]c21 (centres unmarked) [listing 3 of 3 here] | > 5 µM

Other lines, results leading:

AC50 | Compound
1 to 5 µM | O=C(CCc1nccs1)N1CCc2[nH]cnc2C1c1cc2ccccc2nn1 (centres unmarked)
> 5 µM | CC(C)(O)c1cc(C(=O)N2CCc3[nH]cnc3C2c2ccc3ccccc3n2)no1 (centres unmarked)
> 5 µM | Cn1nc(COC(F)(F)F)cc1C(=O)N1CCc2[nH]cnc2C1c1ccc2ccccc2n1 (centres unmarked)
> 5 µM | O=C(c1ccn[nH]1)N1CCc2[nH]cnc2C1c1ccc2ccccc2n1 (centres unmarked)
1 to 5 µM | CC(C)(O)c1nnc(C(=O)N2CCc3[nH]cnc3C2c2cc3ccccc3nn2)o1 (centres unmarked)
> 5 µM | Cc1nc(-c2ccccn2)oc1C(=O)N1CCc2[nH]cnc2C1c1cn2ccccc2n1 (centres unmarked)
> 5 µM | CC(C)(O)c1cc(C(=O)N2CCc3[nH]cnc3C2c2ccc3ccccc3n2)on1 (centres unmarked)
> 5 µM | Cc1nc(-c2cnn(C)c2)oc1C(=O)N1CCc2[nH]cnc2C1c1ncc2ccccc2n1 (centres unmarked)
1 to 5 µM | Cn1cncc1-c1nnc(C(=O)N2CCc3[nH]cnc3C2c2ncc3ccccc3n2)o1 (centres unmarked)
> 5 µM | O=C(c1cnn(CC(F)(F)F)c1Cl)N1CCc2[nH]cnc2C1c1ccc2ccccc2n1 (centres unmarked)
1 to 5 µM | O=C(c1cnco1)N1CCc2[nH]cnc2C1c1cc2ccccc2nn1 (centres unmarked)
1 to 5 µM | O=C(c1cnc(-c2ccccn2)o1)N1CCc2[nH]cnc2C1c1cc2ccccc2nn1 (centres unmarked)
1 to 5 µM | Cn1nc(C(F)F)nc1C(=O)N1CCc2[nH]cnc2C1c1cc2ccccc2nn1 (centres unmarked)
1 to 5 µM | O=C(c1ocnc1C(F)F)N1CCc2[nH]cnc2C1c1cc2ccccc2nn1 (centres unmarked)
> 5 µM | O=C(c1oc(-c2ccccn2)nc1C(F)F)N1CCc2[nH]cnc2C1c1cc2ccccc2nn1 (centres unmarked)
1 to 5 µM | Cn1ccc(-c2nnc(C(=O)N3CCc4[nH]cnc4C3c3cc4ccccc4nn3)o2)n1 (centres unmarked)
1 to 5 µM | Cn1cc(-c2nnc(C(=O)N3CCc4[nH]cnc4C3c3cc4ccccc4nn3)o2)cn1 (centres unmarked)
1 to 5 µM | O=C(c1nnc(-c2ccccn2)o1)N1CCc2[nH]cnc2C1c1cc2ccccc2nn1 (centres unmarked)
1 to 5 µM | O=C(c1nnc(C2CC2)o1)N1CCc2[nH]cnc2C1c1cc2ccccc2nn1 (centres unmarked)
> 5 µM | Cc1nnc(C(=O)N2CCc3[nH]cnc3C2c2cc3ccccc3nn2)o1 (centres unmarked)
1 to 5 µM | CC(C)(C)c1nnc(C(=O)N2CCc3[nH]cnc3C2c2cc3ccccc3nn2)o1 (centres unmarked)
1 to 5 µM | Cn1cc(-c2ncc(C(=O)N3CCc4[nH]cnc4C3c3ncc4ccccc4n3)o2)cn1 (centres unmarked)
> 5 µM | CC(C)(O)c1ncc(C(=O)N2CCc3[nH]cnc3C2c2ncc3ccccc3n2)o1 (centres unmarked)
1 to 5 µM | CN(C)c1nnc(C(=O)N2CCc3[nH]cnc3C2c2ncc3ccccc3n2)o1 (centres unmarked)
1 to 5 µM | Cc1nnc(C(=O)N2CCc3[nH]cnc3C2c2ncc3ccccc3n2)o1 (centres unmarked)
> 5 µM | CN(C)Cc1ccc2c(C(=O)N3CCc4[nH]cnc4C3c3cc4ccccc4nn3)cnn2c1 (centres unmarked)
1 to 5 µM | COCc1ccc2c(C(=O)N3CC(C)c4[nH]cnc4C3c3cc4ccccc4cn3)cnn2c1 (centres unmarked)

Reference: US20250262201A1, “COMPOUNDS AND METHODS USEFUL FOR STABILIZING PHENYLALANINE HYDROXYLASE MUTATIONS” (Agios Pharmaceuticals, Inc., priority 2022, published 2025)
